Reference: ChEMBL document CHEMBL3217573, “Diacrylamides as selective G-quadruplex ligands in in vitro and in vivo assays” (Medchemcomm, 2011)
Calls of active or inactive are those of the source. The calls are words filed in the database; no cut-off is given here.

Legend:
[1] = Displacement of thiazole orange from 22AG DNA (unknown origin) preincubated for 10 mins measured after 3 mins by fluorescence spectra analysis
[2] = Displacement of thiazole orange from ds26 DNA (unknown origin) preincubated for 10 mins measured after 3 mins by fluorescence spectra analysis
[3] = tested on: unidentified; assay: Selectivity ratio of ligand concentration required to displace thiazole orange from 22AG DNA (unknown origin) to same extent as percentage displacement from ds26 DNA (unknown origin) at 2.5 uM of compound
[4] = tested on: MCF7; assay: Cytotoxicity against human MCF7 cells assessed as reduction of cell viability after 10 days by MTT assay relative to control; type: functional
[5] = tested on: MCF7; assay: Cytotoxicity against human MCF7 cells assessed as reduction of cell viability after 10 days by MTT assay; type: functional, cell-based; conditions: MCF7, 240 h
[6] = tested on: Caco-2; assay: Induction of apoptosis in human Caco2 cells after 48 hrs by MTT assay; type: functional, cell-based
[7] = tested on: MCF7; assay: Induction of apoptosis in human MCF7 cells after 48 hrs by MTT assay; type: functional, cell-based
[8] = tested on: MCF7; assay: Cytotoxicity against human MCF7 cells assessed as reduction of cell viability at 2.5 uM after 24 hrs by MTT assay; type: functional

Row | Compound | Kd [1] [nM] | Kd [2] [nM] | Selectivity ratio [3] | Activity [4] [%] | IC50 [5] [nM] | Activity [6] | Activity [7] | Activity [8] [%]
1 | COc1ccc2cc3[n+](cc2c1OC)CCc1cc2c(cc1-3)OCO2 [BERBERINE] | 216000 | 1770 | 0.1 | – | – | – | – | –
2 | NC(=O)/C=C/c1c2ccccc2c(/C=C/C(N)=O)c2ccccc12 | 30 | 2090 | 33.3 | >80 | 2500 | inactive | inactive | –
3 | O=C(/C=C/c1c2ccccc2c(/C=C/C(=O)NC(CO)(CO)CO)c2ccccc12)NC(CO)(CO)CO | – | 22600 | 0 | – | – | – | – | –

The remaining compounds from weak to strong by Kd [2], led by results:

Row | Kd [1] [nM] | Kd [2] [nM] | Selectivity ratio [3] | Compound | Activity [4] [%] | IC50 [5] [nM] | Activity [6] | Activity [7] | Activity [8] [%]
4 | 170 | 1760 | 5 | O=C(/C=C/c1c2ccccc2c(Br)c2ccccc12)N1CCOCC1 | – | – | – | – | –
5 | 70 | 360 | 5.6 | CC(=O)CC(C)(C)NC(=O)/C=C/c1c2ccccc2c(/C=C/C(=O)NC(C)(C)CC(C)=O)c2ccccc12 | – | – | – | – | –
6 | 20200 | 290 | 0 | O=C(/C=C/c1c2ccccc2c(/C=C/C(=O)N2CCOCC2)c2ccccc12)N1CCOCC1 | – | – | – | – | 40
